Measurements reported in US9840501B2, “Morpholin-pyridine derivatives” (Hoffmann-La Roche Inc., priority 2014, dated 2017).

Columns and labels:
mouse TAAR1 = mouse TAAR1 (Mus musculus (Mouse), UniProt Q923Y8); test: Radioligand binding assay on mouse TAAR1; conditions: mouse TAAR1, membranes of stably transfected HEK-293 cells; first value of the pair; read-out: Ki (μM) mouse/rat: mouse
Protocol: (§1) For the construction of expression plasmids the coding sequences of human, rat and mouse TAAR 1 were amplified from genomic DNA essentially as described by Lindemann et al.. The Expand High Fidelity PCR System (Roche Diagnostics) was used with 1.5 mM Mg^2+ and purified PCR products were cloned into pCR2.1-TOPO cloning vector (Invitrogen) following the instructions of the manufacturer. PCR products were subcloned into the pIRESneo2 vector (BD Clontech, Palo Alto, Calif.), and expression vectors were sequence verified before introduction in cell lines.
(§2) For the generation of stably transfected cell lines HEK293 cells were transfected with the pIRESneo2 expression plasmids containing the TAAR coding sequences (described above) with Lipofectamine 2000 (Invitrogen) according to the instructions of the manufacturer, and 24 hrs post transfection the culture medium was supplemented with 1 mg/ml G418 (Sigma, Buchs, Switzerland). After a culture period of about 10 d clones were isolated, expanded and tested for responsiveness to trace amines (all compounds purchased from Sigma) with the cAMP Biotrak Enzyme immunoassay (EIA) System (Amersham) following the non-acetylation EIA procedure provided by the manufacturer.
Radioligand Binding Assay on Mouse TAAR1
(§3) Membrane Preparation and Radioligand Binding.
(§4) Cells were released from culture flasks using trypsin/EDTA, harvested, washed twice with ice-cold PBS (without Ca^2+ and Mg^2+), pelleted at 1,000 rpm for 5 min at 4° C., frozen and stored at −80° C. Frozen pellets were suspended in 20 ml HEPES-NaOH (20 mM, pH 7.4) containing 10 mM EDTA and homogenized with a Polytron (PT 6000, Kinematica) at 14′000 rpm for 20 s. The homogenate was centrifuged at 48,000×g for 30 min at 4° C. Subsequently, the supernatant was removed and discarded, and the pellet resuspended in 20 ml HEPES-NaOH (20 mM, pH 7.4) containing 0.1 mM EDTA using the Polytron (20 s at 14′000 rpm). This procedure was repeated and the final pellet resuspended in HEPES-NaOH containing 0.1 mM EDTA and homogenized using the Polytron. Typically, aliquots of 2 ml membrane portions were stored at −80° C. With each new membrane batch the dissociation constant (Kd) was determined via a saturation curve. […] Nonspecific binding was defined as the amount of ^3[H]—(S)-4-[(ethyl-phenyl-amino)-methyl]-4,5-dihydro-oxazol-2-ylamine bound in the presence of 10 μM unlabeled ligand. All compounds were tested at a broad range of concentrations (10 pM to 10 μM) in duplicates. […] The 96 deep well plates were incubated for 1 hr at 4° C. Incubations were terminated by rapid filtration through Unifilter-96 plates (Packard Instrument Company) and glass filters GF/C (Perkin Elmer) presoaked for 1 hr in polyethylenimine (0.3%) and washed 3 times with 1 ml of cold binding buffer. After addition of 45 μl of Microscint 40 (PerkinElmer) the Unifilter-96 plate was sealed and after 1 hr the radioactivity counted using a TopCount Microplate Scintillation Counter (Packard Instrument Company).

rat TAAR1 = rat TAAR1 (Rattus norvegicus (Rat), UniProt Q923Y9); test: Radioligand binding assay on rat TAAR1; conditions: rat TAAR1, membranes of stably transfected HEK-293 cells; second value of the pair; read-out: Ki (μM) mouse/rat: rat
Protocol: as §1, §2
Radioligand Binding Assay on Rat TAAR1
as §3
as §4, with “1′000” for “1,000”, “48′000×g” for “48,000×g”

mouse TAAR1, sequence (Q923Y8 whole entry): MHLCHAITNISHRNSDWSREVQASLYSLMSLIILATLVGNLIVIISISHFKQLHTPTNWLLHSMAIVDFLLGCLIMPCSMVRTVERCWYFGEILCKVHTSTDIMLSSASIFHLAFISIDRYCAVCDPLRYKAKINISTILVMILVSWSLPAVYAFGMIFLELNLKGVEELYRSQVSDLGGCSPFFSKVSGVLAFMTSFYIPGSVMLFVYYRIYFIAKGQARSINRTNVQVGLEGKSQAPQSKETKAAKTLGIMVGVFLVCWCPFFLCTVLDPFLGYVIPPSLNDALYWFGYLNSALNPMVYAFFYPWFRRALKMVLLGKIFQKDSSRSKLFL
rat TAAR1, sequence (Q923Y9 whole entry): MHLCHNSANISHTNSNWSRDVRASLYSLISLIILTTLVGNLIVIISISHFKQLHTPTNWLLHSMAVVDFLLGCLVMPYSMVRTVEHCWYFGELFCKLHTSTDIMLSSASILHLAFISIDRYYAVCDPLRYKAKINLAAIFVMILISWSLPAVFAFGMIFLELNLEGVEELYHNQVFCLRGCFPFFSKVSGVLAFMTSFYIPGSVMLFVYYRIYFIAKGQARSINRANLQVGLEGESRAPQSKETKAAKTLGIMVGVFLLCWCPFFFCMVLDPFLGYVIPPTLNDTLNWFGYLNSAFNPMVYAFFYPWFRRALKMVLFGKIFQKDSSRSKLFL

SMILES | Ki (mouse TAAR1) | Ki (rat TAAR1)
CC(C)Cc1n[nH]c(C(=O)Nc2ccc([C@H]3CNCCO3)nc2)c1F [Example 95, 4-Fluoro-3-isobutyl-N-[6-[(2R)-morpholin-2-yl]-3-pyridyl]-1H-pyrazole-5-carboxamide] | 0.0113 µM | 0.0534 µM
Clc1ccc(Nc2cnc(C3CNCCO3)nc2)cc1 (racemic) [Example 70, (RS)—N-(4-Chlorophenyl)-2-morpholin-2-yl-pyrimidin-5-amine] | 0.0186 µM | 1.45 µM
CC(C)Cc1n[nH]c(C(=O)Nc2ccc([C@@H]3CNCCO3)nc2)c1F [Example 89, 4-Fluoro-3-isobutyl-N-[6-[(2S)-morpholin-2-yl]-3-pyridyl]-1H-pyrazole-5-carboxamide] | 0.0133 µM | 0.0297 µM
CC(C)c1n[nH]c(C(=O)Nc2ccc([C@@H]3CNCCO3)nc2)c1Cl [Example 120, 4-Chloro-3-isopropyl-N-[6-[(2S)-morpholin-2-yl]-3-pyridyl]-1H-pyrazole-5-carboxamide] | 0.0311 µM | 0.0203 µM
CCc1ncc(C(=O)Nc2ccc([C@H]3CNCCO3)nc2)cn1 [Example 57, 2-Ethyl-N-[6-[(2R)-morpholin-2-yl]-3-pyridyl]pyrimidine-5-carboxamide] | 0.673 µM | 2.4 µM
O=C(Nc1ccc([C@@H]2CNCCO2)nc1)c1[nH]nc(C2CC2)c1Br [Example 81, 4-Bromo-3-cyclopropyl-N-[6-[(2S)-morpholin-2-yl]-3-pyridyl]-1H-pyrazole-5-carboxamide] | 0.006 µM | 0.0152 µM
O=C(Nc1cccc(Cl)c1)Nc1cnc(C2CNCCO2)c(F)c1 (racemic) [Example 112, (RS)-1-(3-Chlorophenyl)-3-(5-fluoro-6-morpholin-2-yl-3-pyridyl)urea] | 0.0102 µM | 0.0286 µM
CCCc1n[nH]c(C(=O)Nc2ccc([C@H]3CNCCO3)nc2)c1F [Example 85, 4-Fluoro-N-[6-[(2R)-morpholin-2-yl]-3-pyridyl]-3-propyl-1H-pyrazole-5-carboxamide] | 0.0046 µM | 0.15 µM
CCCCc1cc(C(=O)Nc2ccc([C@@H]3CNCCO3)nc2)[nH]n1 [Example 91, 3-Butyl-N-[6-[(2S)-morpholin-2-yl]-3-pyridyl]-1H-pyrazole-5-carboxamide] | 0.0031 µM | 0.0061 µM
Cc1cc(C(=O)Nc2ccc([C@H]3CNCCO3)nc2)nc(C(F)(F)F)n1 [Example 68, (R)-6-Methyl-N-(6-(morpholin-2-yl)pyridin-3-yl)-2-(trifluoromethyl)pyrimidine-4-carboxamide] | 0.0731 µM | 0.0469 µM
O=C(Nc1ccc([C@@H]2CNCCO2)nc1)c1[nH]nc(C2CC2)c1F [Example 80, 3-Cyclopropyl-4-fluoro-N-[6-[(2S)-morpholin-2-yl]-3-pyridyl]-1H-pyrazole-5-carboxamide] | 0.0065 µM | 0.0856 µM
CCCc1c(Cl)c(C(=O)Nc2ccc([C@@H]3CNCCO3)nc2)nn1C [Example 46, 4-Chloro-1-methyl-N-[6-[(2S)-morpholin-2-yl]-3-pyridyl]-5-propyl-pyrazole-3-carboxamide] | 0.0188 µM | 0.651 µM
CCCc1n[nH]c(C(=O)Nc2ccc([C@H]3CNCCO3)nc2)c1Cl [Example 59, 4-Chloro-N-[6-[(2R)-morpholin-2-yl]-3-pyridyl]-3-propyl-1H-pyrazole-5-carboxamide] | 0.0063 µM | 0.021 µM
CC(C)c1n[nH]c(C(=O)Nc2ccc([C@H]3CNCCO3)nc2)c1Cl [Example 115, 4-Chloro-3-isopropyl-N-[6-[(2R)-morpholin-2-yl]-3-pyridyl]-1H-pyrazole-5-carboxamide] | 0.0087 µM | 0.009 µM
O=C(Nc1ccc([C@@H]2CNCCO2)nc1)Nc1cccc(C(F)(F)F)c1 [Example 42, 1-[6-[(2S)-Morpholin-2-yl]-3-pyridyl]-3-[3-(trifluoromethyl)phenyl]urea] | 0.0038 µM | 0.003 µM

Results, then the compound that gave them:

Ki (mouse TAAR1) | Ki (rat TAAR1) | SMILES
0.0075 µM | 0.0334 µM | O=C(Nc1ccc([C@H]2CNCCO2)nc1)c1ccc(OCC(F)(F)F)nc1 [Example 56, N-[6-[(2R)-Morpholin-2-yl]-3-pyridyl]-6-(2,2,2-trifluoroethoxy)pyridine-3-carboxamide]
0.0065 µM | 0.372 µM | Fc1ccc(Nc2ccc(C3CNCCO3)nc2)cc1 (racemic) [Example 5, (RS)—N-(4-Fluorophenyl)-6-morpholin-2-yl-pyridin-3-amine]
0.0263 µM | 0.0727 µM | CC(C)c1cc(C(=O)Nc2ccc([C@@H]3CNCCO3)nc2)[nH]n1 [Example 38, 3-Isopropyl-N-[6-[(2S)-morpholin-2-yl]-3-pyridyl]-1H-pyrazole-5-carboxamide]
0.143 µM | 0.371 µM | O=C(Nc1cnc(C2CNCCO2)c(Cl)c1)c1ccnc(C(F)(F)F)c1 (racemic) [Example 107, (RS)—N-(5-Chloro-6-morpholin-2-yl-3-pyridyl)-2-(trifluoromethyl)pyridine-4-carboxamide]
0.464 µM | 1.41 µM | Cc1cc(NC(=O)c2ccnc(C(F)(F)F)c2)cnc1C1CNCCO1 (racemic) [Example 117, (RS)—N-(5-Methyl-6-morpholin-2-yl-3-pyridyl)-2-(trifluoromethyl)pyridine-4-carboxamide]
0.015 µM | 0.12 µM | CC(C)c1n[nH]c(C(=O)Nc2ccc([C@H]3CNCCO3)nc2)c1F [Example 116, 4-Fluoro-3-isopropyl-N-[6-[(2R)-morpholin-2-yl]-3-pyridyl]-1H-pyrazole-5-carboxamide]
0.0239 µM | 0.443 µM | Cc1n[nH]c(C(=O)Nc2ccc([C@@H]3CNCCO3)nc2)c1Cl [Example 44, 4-Chloro-3-methyl-N-[6-[(2S)-morpholin-2-yl]-3-pyridyl]-1H-pyrazole-5-carboxamide]
0.0474 µM | 0.0838 µM | O=C(Nc1ccc([C@@H]2CNCCO2)nc1)c1[nH]nc(C(F)(F)F)c1Cl [Example 43, 4-Chloro-N-[6-[(2S)-morpholin-2-yl]-3-pyridyl]-3-(trifluoromethyl)-1H-pyrazole-5-carboxamide]
0.0089 µM | 0.0428 µM | O=C(Nc1ccc([C@@H]2CNCCO2)nc1)c1[nH]nc(C2CC2)c1Cl [Example 40, 4-Chloro-3-cyclopropyl-N-[6-[(2S)-morpholin-2-yl]-3-pyridyl]-1H-pyrazole-5-carboxamide]
0.0072 µM | 0.195 µM | FC(F)(F)c1ccc(Nc2cnc(C3CNCCO3)nc2)cc1 (racemic) [Example 71, (RS)-2-Morpholin-2-yl-N-[4-(trifluoromethyl)phenyl]pyrimidin-5-amine]
0.0064 µM | 0.0221 µM | O=C(Nc1ccc([C@H]2CNCCO2)nc1)c1cccc(C(F)(F)F)c1 [Example 55, N-[6-[(2R)-Morpholin-2-yl]-3-pyridyl]-3-(trifluoromethyl)benzamide]
